Results taken from patent US20230151025A1, “SUBSTITUTED THIAZOLOPYRIDINES, SALTS THEREOF AND THEIR USE AS HERBICIDALLY ACTIVE SUBSTANCES” (Bayer Aktiengesellschaft, priority 2020, published 2023).

Assays:
Format in all cases: in vivo
[1] = tested on: Alopecurus myosuroides (ALOMY); experiment: Herbicidal pre-emergence action (A), 1280 g/ha; conditions: visual grading after ca. 3 weeks vs untreated controls, 100% = plants have died off, 0% = as control plants
Text: (§1) ABUTH: Abutilon theophrasti AGSTE: Agrostis tenuis ALOMY: Alopecurus myosuroides AMARE Amaranthus retroflexus DIGSA: Digitaria sanguinalis ECHCG: Echinochloa crus-galli KCHSC: Kochia scoparia LOLRI: Lolium rigidum MATIN: Matricaria inodora POAAN: Poa annua POLCO: Polygonum convolvulus SETVI: Setaria viridis STEME: Stellaria media VERPE: Veronica persica VIOTR: Viola tricolor
(§2) Seeds of mono- and dicotyledonous weed plants were sown in plastic pots (double sowings with one species of mono- and one species of dicotyledonous weed plants per pot), in sandy loam, and covered with soil. The compounds according to the invention, formulated in the form of wettable powders (WP) or as emulsifiable concentrates (EC), were applied to the surface of the covering soil as aqueous suspension or emulsion, with the addition of 0.5% of an additive, at an application rate of 600 l of water per hectare (converted). Following treatment, the pots were placed in a greenhouse and kept under optimum growth conditions for the test plants. The visual grading of the damage to the test plants was carried out after ca. 3 weeks in comparison to untreated controls (herbicidal effect in percent (%): 100% effect=plants have died off, 0% effect=as control plants).
(§3) Tables A1 to A12, below, show the effects of selected compounds of the general formula (I) according to table 1 on various harmful plants and an application rate corresponding to 1280 g/ha obtained by the experimental procedure mentioned above.

Setaria viridis (SETVI) [2] = experiment: Herbicidal pre-emergence action (A), 1280 g/ha; conditions: visual grading after ca. 3 weeks vs untreated controls
Text: as §1, §2, §3

Poa annua (POAAN) [3] = experiment: Herbicidal pre-emergence action (A), 1280 g/ha; conditions: visual grading after ca. 3 weeks vs untreated controls, 100% = plants have died off, 0% = as control plants
Text: as §1, §2, §3

[4] = tested on: Amaranthus retroflexus (AMARE); experiment: Herbicidal pre-emergence action (A), 1280 g/ha; conditions: visual grading after ca. 3 weeks vs untreated controls
Text: as §1, §2, §3

[5] = tested on: Kochia scoparia (KCHSC; Bassia scoparia); experiment: Herbicidal pre-emergence action (A), 1280 g/ha; conditions: visual grading after ca. 3 weeks vs untreated controls
Text: as §1, §2, §3

Stellaria media (STEME) [6] = experiment: Herbicidal pre-emergence action (A), 1280 g/ha; conditions: visual grading after ca. 3 weeks vs untreated controls
Text: as §1, §2, §3

[7] = tested on: Echinochloa crus-galli (ECHCG); experiment: Herbicidal pre-emergence action (A), 1280 g/ha; conditions: visual grading after ca. 3 weeks vs untreated controls, 100% = plants have died off, 0% = as control plants
Text: as §1, §2, §3

[8] = tested on: Matricaria inodora (MATIN); experiment: Herbicidal pre-emergence action (A), 1280 g/ha; conditions: visual grading after ca. 3 weeks vs untreated controls
Text: as §1, §2, §3

Lolium rigidum (LOLRI) = experiment: Herbicidal pre-emergence action (A), 1280 g/ha; conditions: visual grading after ca. 3 weeks vs untreated controls, 100% = plants have died off, 0% = as control plants
Text: as §1, §2, §3

Setaria viridis (SETVI) [9] = experiment: Herbicidal post-emergence action (B), 1280 g/ha; conditions: rated visually after about 3 weeks vs untreated controls
Text: as §1
(§4) Seeds of mono- and dicotyledonous weed plants were placed in plastic pots in sandy loam soil (doubly sown with in each case one species of mono- or dicotyledonous weed plants per pot), covered with soil and cultivated in a greenhouse under controlled growth conditions. 2 to 3 weeks after sowing, the test plants were treated at the one-leaf stage. The compounds of the invention, formulated in the form of wettable powders (WP) or as emulsion concentrates (EC), were applied onto the green parts of the plants as aqueous suspension or emulsion with addition of 0.5% additive at a water application rate of 600 liters per hectare (converted). After the test plants had been kept in the greenhouse under optimum growth conditions for about 3 weeks, the activity of the preparations was rated visually in comparison to untreated controls. For example, 100% activity=the plants have died, 0% activity=like control plants.
(§5) Tables B1 to B12, below, show the effects of selected compounds of the general formula (I) according to table 1 on various harmful plants and an application rate corresponding to 1280 g/ha obtained by the experimental procedure mentioned above.

[10] = tested on: Amaranthus retroflexus (AMARE); experiment: Herbicidal post-emergence action (B), 1280 g/ha; conditions: rated visually after about 3 weeks vs untreated controls
Text: as §1, §4, §5

[11] = tested on: Abutilon theophrasti (ABUTH); experiment: Herbicidal post-emergence action (B), 1280 g/ha; conditions: rated visually after about 3 weeks vs untreated controls
Text: as §1, §4, §5

[12] = tested on: Kochia scoparia (KCHSC; Bassia scoparia); experiment: Herbicidal post-emergence action (B), 1280 g/ha
Text: as §1, §4, §5

Veronica persica (VERPE) [13] = experiment: Herbicidal post-emergence action (B), 1280 g/ha
Text: as §1, §4, §5

Stellaria media (STEME) [14] = experiment: Herbicidal post-emergence action (B), 1280 g/ha
Text: as §1, §4, §5

Veronica persica (VERPE) [15] = experiment: Herbicidal pre-emergence action (A), 1280 g/ha; conditions: visual grading after ca. 3 weeks vs untreated controls
Text: as §1, §2, §3

[16] = tested on: Alopecurus myosuroides (ALOMY); experiment: Herbicidal post-emergence action (B), 1280 g/ha; conditions: rated visually after about 3 weeks vs untreated controls
Text: as §1, §4, §5

Poa annua (POAAN) [17] = experiment: Herbicidal post-emergence action (B), 1280 g/ha; conditions: rated visually after about 3 weeks vs untreated controls
Text: as §1, §4, §5

[18] = tested on: Echinochloa crus-galli (ECHCG); experiment: Herbicidal post-emergence action (B), 1280 g/ha; conditions: rated visually after about 3 weeks vs untreated controls
Text: as §1, §4, §5

[19] = tested on: Digitaria sanguinalis (DIGSA); experiment: Herbicidal pre-emergence action (A), 1280 g/ha; conditions: visual grading after ca. 3 weeks vs untreated controls, 100% = plants have died off, 0% = as control plants
Text: as §1, §2, §3

[20] = tested on: Digitaria sanguinalis (DIGSA); experiment: Herbicidal post-emergence action (B), 1280 g/ha; conditions: rated visually after about 3 weeks vs untreated controls
Text: as §1, §4, §5

Setaria viridis (SETVI) [21] = experiment: Herbicidal pre-emergence action (C), 320 g/ha; conditions: ca. 3 weeks
Text: as §1
Seeds of mono- and dicotyledonous weed plants and crop plants were sown, in plastic or organic planting pots, in sandy loam and covered with soil. The compounds according to the invention, formulated in the form of wettable powders (WP) or as emulsifiable concentrates (EC), were applied to the surface of the covering soil as aqueous suspension or emulsion, with the addition of 0.5% of an additive, at an application rate of 600 l of water/ha (converted).
Following treatment, the pots were placed in a greenhouse and kept under optimum growth conditions for the test plants. The visual grading of the damage to the test plants was carried out after ca. 3 weeks in comparison to untreated controls (herbicidal effect in percent (%): 100% effect=plants have died off, 0% effect=as control plants).
Tables C1 to C13 below show the effects of selected compounds of the general formula (I) according to table 1 on various harmful plants and an application rate corresponding to 320 g/ha obtained by the experimental procedure mentioned above.

SMILES | ALOMY, herbicidal effect in percent (%) [1] [%] | herbicidal effect SETVI (Setaria viridis (SETVI) [2]) [%] | POAAN, herbicidal effect in percent (%) (Poa annua (POAAN) [3]) | herbicidal effect AMARE [4] [%] | herbicidal effect KCHSC [5] [%] | herbicidal effect STEME (Stellaria media (STEME) [6]) [%] | ECHCG, herbicidal effect in percent (%) [7] [%] | herbicidal effect MATIN [8] [%] | LOLRI, herbicidal effect in percent (%) (Lolium rigidum (LOLRI)) | herbicidal activity SETVI (Setaria viridis (SETVI) [9]) [%] | herbicidal activity AMARE [10] [%] | herbicidal activity ABUTH [11] [%] | herbicidal effect KCHSC [12] [%] | herbicidal effect VERPE (Veronica persica (VERPE) [13]) [%] | herbicidal effect STEME (Stellaria media (STEME) [14]) [%] | herbicidal effect VERPE (Veronica persica (VERPE) [15]) [%] | herbicidal activity ALOMY [16] [%] | herbicidal activity POAAN (Poa annua (POAAN) [17]) [%] | DIGSA, herbicidal effect in percent (%) [19] [%] | herbicidal activity DIGSA [20] [%] | also measured
Cc1cccc(F)c1-c1nc2ncsc2cc1Br [Example I-088] | 100 | 100 | 100 | 90 | 90 | 90 | 100 | 90 | 100 | 90 | 100 | 90 | 100 | 100 | 100 | – | – | – | – | – | –
Cc1nc2nc(-c3ccccc3F)c(C)cc2s1 [Example I-001] | – | 100 | – | – | – | 90 | 100 | 90 | – | 90 | 90 | – | – | – | – | – | – | – | – | – | –
Fc1cc(F)c(-c2nc3ncsc3cc2Cl)c(F)c1 [Example I-035] | 90 | 100 | 100 | 90 | 90 | 90 | 100 | 90 | 100 | 90 | 100 | 90 | 90 | 90 | – | 90 | 90 | 90 | – | – | herbicidal activity ECHCG [18]: 90%
CCc1cc2scnc2nc1C12CCCCC1O2 (centres unmarked) [Example I-152] | – | 100 | 100 | 90 | 100 | 90 | 100 | 90 | 100 | – | 100 | 90 | 90 | 100 | – | 90 | 100 | 100 | 100 | – | –
CCc1cc2scnc2nc1-c1ccccc1C(F)(F)F [Example I-049] | 100 | 100 | 100 | 90 | 100 | 100 | 100 | 90 | 100 | – | 100 | – | 100 | 90 | 90 | 100 | – | 100 | 90 | 90 | –
Cc1cc2sc(S)nc2nc1-c1cccc(F)c1 [Example I-159, 5-(3-fluorophenyl)-6-methyl-thiazolo[4,5-b]pyridine-2-thiol] | – | 90 | – | – | – | – | – | – | – | – | – | 90 | 90 | – | – | – | – | – | – | 100 | –
CCc1cc2scnc2nc1C1=CCCCC1 [Example I-145] | 100 | 100 | 100 | 100 | 90 | 90 | 100 | 90 | 100 | – | 100 | – | 90 | 100 | 100 | 100 | 100 | – | 100 | 100 | herbicidal activity ECHCG [18]: 100%; herbicidal effect SETVI (Setaria viridis (SETVI) [21]): 90%
CCc1cc2sc(S)nc2nc1-c1ccccc1F [Example I-165] | 90 | 100 | 100 | 90 | – | 90 | – | – | – | – | – | – | 90 | 90 | – | 90 | – | – | – | 100 | –
Fc1ccc(-c2ccc3scnc3n2)cc1 [Example I-074, 5-(4-fluorophenyl)thiazolo[4,5-b]pyridine] | – | 100 | 100 | 90 | – | – | 100 | – | – | – | 90 | – | 90 | – | 90 | – | – | – | 100 | 100 | –
Cc1cc2sc([S+](C)[O-])nc2nc1-c1ccccc1 (centres unmarked) [Example I-092] | – | – | 90 | 90 | – | 90 | – | – | – | – | 100 | 90 | 100 | 90 | – | 90 | – | – | – | 100 | –
